Some results are limits rather than exact numbers.

The test deals with T1, human MDM2 (GST-hMDM2 1-188), interaction with biotinylated-p53 (1-83) (Homo sapiens, UniProt Q00987).
T1 construct: Amino acid residues 1-188 of human MDM2 were expressed; made in house; host or cells: Escherichia coli
T1 sequence (Q00987 1-188): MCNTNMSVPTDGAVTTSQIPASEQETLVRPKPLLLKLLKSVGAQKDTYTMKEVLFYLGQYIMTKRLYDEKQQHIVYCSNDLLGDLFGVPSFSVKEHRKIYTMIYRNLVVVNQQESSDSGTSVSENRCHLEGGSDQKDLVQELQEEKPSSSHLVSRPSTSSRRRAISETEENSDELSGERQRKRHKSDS
As to the kind of experiment: improved HTRF assay (HTRF2 assay), inhibition of HDM2-p53 interaction. It counts as binding. To be noted: 0.2 nM GST-hMDM2, 0.5 nM biotinylated-p53, 100 mM KF. The gist of the method:
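Time-resolved fluorescence (HTRF) read after >4 h equilibration with SA-XLent/anti-GST cryptate/KF detection reagents. Reaction: compound plus GST-hMDM2 for 20 min at room temperature, then E. coli-expressed biotinylated p53 residues 1-83 for 60 min, 2% DMSO final. Inhibition expressed versus nutlin-3.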
A general note: TR-FRET usually uses a lanthanide donor and a delayed reading to cut background.
Take `CC[C@@H](CS(=O)(=O)C(C)(C)C)N1C(=O)[C@@H](CC(N)=O)O[C@H](c2cccc(Cl)c2)[C@H]1c1ccc(Cl)cc1` (single isomer, unassigned) [Example 261, 2-((2R,5R,6R)-4-((S)-1-(tert-butylsulfonyl)butan-2-yl)-6-(3-chlorophenyl)-5-(4-chlorophenyl)-3-oxomorpholin-2-yl)acetamide or 2-((2S,5R,6R)-4-((S)-1-(tert-butylsulfonyl)butan-2-yl)-6-(3-chlorophenyl)-5-(4-chlorophenyl)-3-oxomorpholin-2-yl)acetamide]: the half-maximal inhibitory concentration (IC50) (as a rule, the concentration needed to halve the response being measured) was determined as 6 nM.

In turn, `Cc1nnc(C[C@H]2O[C@H](c3cccc(Cl)c3)[C@@H](c3ccc(Cl)cc3)N([C@H](CN(c3ccccc3F)S(=O)(=O)C3CC3)C3CC3)C2=O)o1` (single isomer, unassigned) [Example 403, N-((S)-2-((2R,3R,6R)-2-(3-Chlorophenyl)-3-(4-chlorophenyl)-6-((5-methyl-1,3,4-oxadiazol-2-yl)methyl)-5-oxomorpholino)-2-cyclopropylethyl)-N-(2-fluorophenyl)cyclopropanesulfonamide or N-((S)-2-((2S,3R,6R)-2-(3-chlorophenyl)-3-(4-chlorophenyl)-6-((5-methyl-1,3,4-oxadiazol-2-yl)methyl)-5-oxomorpholino)-2-cyclopropylethyl)-N-(2-fluorophenyl)cyclopropanesulfonamide] came in with an IC50 of 2 nM.

With `Cc1ccc([C@H]2O[C@H](CC(=O)O)C(=O)N([C@H](CS(=O)(=O)C(C)(C)C)C3CC3)[C@@H]2c2ccc(Cl)cc2)cc1Cl` [Example 327, 2-((2R,5R,6R)-4-((S)-2-(tert-Butylsulfonyl)-1-cyclopropylethyl)-6-(3-chloro-4-methylphenyl)-5-(4-chlorophenyl)-3-oxomorpholin-2-yl)acetic acid], the IC50 is 51 nM.

Molecule `CC[C@@H](CS(=O)(=O)C1CC1)N1C(=O)[C@@H](CC(=O)O)O[C@H](c2cccc(Cl)c2)[C@H]1c1ccc(Cl)cc1` (single isomer, unassigned) [Example 213, 2-((2R,5R,6R)-6-(3-chlorophenyl)-5-(4-chlorophenyl)-4-((S)-1-(cyclopropylsulfonyl)butan-2-yl)-3-oxomorpholin-2-yl)acetic acid or 2-((2S,5R,6R)-6-(3-chlorophenyl)-5-(4-chlorophenyl)-4-((S)-1-(cyclopropylsulfonyl)butan-2-yl)-3-oxomorpholin-2-yl)acetic acid] came in with a half-maximal inhibitory concentration (IC50) of 5 nM.

Molecule `CC(C)(C)NS(=O)(=O)C[C@H](C1CC1)N1C(=O)[C@@H](CC(=O)O)O[C@H](c2cccc(Cl)c2)[C@H]1c1ccc(Cl)cc1` (single isomer, unassigned) [Example 292, 2-((2R,5R,6R)-4-((S)-2-(N-(tert-Butyl)sulfamoyl)-1-cyclopropylethyl)-6-(3-chlorophenyl)-5-(4-chlorophenyl)-3-oxomorpholin-2-yl)acetic acid or 2-((2S,5R,6R)-4-((S)-2-(N-(tert-butyl)sulfamoyl)-1-cyclopropylethyl)-6-(3-chlorophenyl)-5-(4-chlorophenyl)-3-oxomorpholin-2-yl)acetic acid] returned an IC50 of under 1 nM.

`CC[C@@H](CS(=O)(=O)C(C)(C)C)N1C(=O)[C@@H](Cc2nnn[nH]2)O[C@H](c2cccc(Cl)c2)[C@H]1c1ccc(Cl)cc1` [Example 382, (2R,5R,6R)-2-((1H-Tetrazol-5-yl)methyl)-4-((S)-1-(tert-butylsulfonyl)butan-2-yl)-6-(3-chlorophenyl)-5-(4-chlorophenyl)morpholin-3-one] showed a concentration for half-maximal inhibition (IC50) of under 1 nM.

As to `NC(=O)C[C@@H]1O[C@H](c2cccc(Cl)c2)[C@@H](c2ccc(Cl)cc2)N([C@H](CN(c2ccccc2F)S(=O)(=O)C2CC2)C2CC2)C1=O` (single isomer, unassigned) [Example 256, 2-((2S,5R,6R)-6-(3-chlorophenyl)-5-(4-chlorophenyl)-4-((S)-1-cyclopropyl-2-(N-(2-fluorophenyl)cyclopropanesulfonamido)ethyl)-3-oxomorpholin-2-yl)acetamide or 2-((2R,5R,6R)-6-(3-chlorophenyl)-5-(4-chlorophenyl)-4-((S)-1-cyclopropyl-2-(N-(2-fluorophenyl)cyclopropanesulfonamido)ethyl)-3-oxomorpholin-2-yl)acetamide], the IC50 was under 1 nM.

For `CC[C@@H](CS(=O)(=O)N1CCC[C@H]1C)N1C(=O)[C@@H](CC(=O)O)O[C@H](c2cccc(Cl)c2)[C@H]1c1ccc(Cl)cc1` (single isomer, unassigned) [Example 210, 2-((2R,5R,6R)-6-(3-chlorophenyl)-5-(4-chlorophenyl)-4-((S)-1-(((R)-2-methylpyrrolidin-1-yl)sulfonyl)butan-2-yl)-3-oxomorpholin-2-yl)acetic acid or 2-((2S,5R,6R)-6-(3-chlorophenyl)-5-(4-chlorophenyl)-4-((S)-1-(((R)-2-methylpyrrolidin-1-yl)sulfonyl)butan-2-yl)-3-oxomorpholin-2-yl)acetic acid], half-maximal inhibition (IC50) required 1 nM.

Consider “Methyl 2-((2R,5R,6R)-6-(3-chlorophenyl)-5-(4-chlorophenyl)-4-((S)-1-((2-(dimethylamino)ethyl)sulfonyl)butan-2-yl)-3-oxomorpholin-2-yl)acetate and methyl 2-((2S,5R,6R)-6-(3-chlorophenyl)-5-(4-chlorophenyl)-4-((S)-1-((2-(dimethylamino)ethyl)sulfonyl)butan-2-yl)-3-oxomorpholin-2-yl)acetate [Example 246]”, for which the IC50 was 6 nM.

With `Cc1n[nH]c(C[C@H]2O[C@H](c3cccc(Cl)c3)[C@@H](c3ccc(Cl)cc3)N([C@H](CN(c3ccccc3F)S(=O)(=O)C3CC3)C3CC3)C2=O)n1` (single isomer, unassigned) [Example 393, N-((S)-2-((2R,3R,6R)-2-(3-Chlorophenyl)-3-(4-chlorophenyl)-6-((3-methyl-1H-1,2,4-triazol-5-yl)methyl)-5-oxomorpholino)-2-cyclopropylethyl)-N-(2-fluorophenyl)cyclopropanesulfonamide or N-((S)-2-((2S,3R,6R)-2-(3-chlorophenyl)-3-(4-chlorophenyl)-6-((3-methyl-1H-1,2,4-triazol-5-yl)methyl)-5-oxomorpholino)-2-cyclopropylethyl)-N-(2-fluorophenyl)cyclopropanesulfonamide], the half-inhibitory concentration (IC50) was under 1 nM.

The molecule `C[C@@H](CS(=O)(=O)C(C)(C)C)N1C(=O)[C@H](CC(=O)NO)O[C@H](c2cccc(Cl)c2)[C@H]1c1ccc(Cl)cc1` (single isomer, unassigned) [Example 229, 2-((2S,5R,6R)-4-((S)-1-(tert-butylsulfonyl)propan-2-yl)-6-(3-chlorophenyl)-5-(4-chlorophenyl)-3-oxomorpholin-2-yl)-N-hydroxyacetamide or 2-((2R,5R,6R)-4-((S)-1-(tert-butylsulfonyl)propan-2-yl)-6-(3-chlorophenyl)-5-(4-chlorophenyl)-3-oxomorpholin-2-yl)-N-hydroxyacetamide] showed an IC50 of 8 nM.

`CC[C@@H](CS(=O)(=O)C(C)(C)C)N1C(=O)[C@@H](CCO)O[C@H](c2cccc(Cl)c2)[C@H]1c1ccc(Cl)cc1` [Example 152, (2R,5R,6R)-4-((S)-1-(tert-butylsulfonyl)butan-2-yl)-6-(3-chlorophenyl)-5-(4-chlorophenyl)-2-(2-hydroxyethyl)morpholin-3-one]: half-maximal inhibition (IC50) required 37 nM.

`CC(C)(C)S(=O)(=O)C[C@H](C1CC1)N1C(=O)[C@@H](CC(=O)O)O[C@H](c2ccc(Cl)c(Cl)c2)[C@H]1c1ccc(Cl)cc1` (single isomer, unassigned) [Example 319, 2-((2R,5R,6R)-4-((S)-2-(tert-Butylsulfonyl)-1-cyclopropylethyl)-5-(4-chlorophenyl)-6-(3,4-dichlorophenyl)-3-oxomorpholin-2-yl)acetic acid or 2-((2S,5R,6R)-4-((S)-2-(tert-butylsulfonyl)-1-cyclopropylethyl)-5-(4-chlorophenyl)-6-(3,4-dichlorophenyl)-3-oxomorpholin-2-yl)acetic acid] registered an IC50 of 113 nM.

Turning to `CC(C)(C)S(=O)(=O)C[C@H](C1CCC1)N1C(=O)[C@@H](CC(=O)O)O[C@H](c2cccc(Cl)c2)[C@H]1c1ccc(Cl)cc1` (single isomer, unassigned) [Example 270, 2-((2R,5R,6R)-4-((S)-2-(tert-Butylsulfonyl)-1-cyclobutylethyl)-6-(3-chlorophenyl)-5-(4-chlorophenyl)-3-oxomorpholin-2-yl)acetic acid or 2-((2S,5R,6R)-4-((S)-2-(tert-butylsulfonyl)-1-cyclobutylethyl)-6-(3-chlorophenyl)-5-(4-chlorophenyl)-3-oxomorpholin-2-yl)acetic acid], the concentration for half-maximal inhibition (IC50) was 2 nM.

`CC[C@@H](CN(C)S(=O)(=O)C1CC1)N1C(=O)[C@@H](Cc2nnn[nH]2)O[C@H](c2cccc(Cl)c2)[C@H]1c1ccc(Cl)cc1` (single isomer, unassigned) [Example 243, N-((S)-2-((2R,5R,6R)-2-((1H-tetrazol-5-yl)methyl)-6-(3-chlorophenyl)-5-(4-chlorophenyl)-3-oxomorpholino)butyl)-N-methylcyclopropanesulfonamide or N-((S)-2-((2S,5R,6R)-2-((1H-tetrazol-5-yl)methyl)-6-(3-chlorophenyl)-5-(4-chlorophenyl)-3-oxomorpholino)butyl)-N-methylcyclopropanesulfonamide] registered an IC50 of 1 nM.

The molecule `CC[C@@H](CS(=O)(=O)C(C)(C)C)N1C(=O)[C@@H](CC#N)O[C@H](c2cccc(Cl)c2)[C@H]1c1ccc(Cl)cc1` [Example 381, 2-((2R,5R,6R)-4-((S)-1-(tert-Butylsulfonyl)butan-2-yl)-6-(3-chlorophenyl)-5-(4-chlorophenyl)-3-oxomorpholin-2-yl)acetonitrile] returned a 50% inhibitory concentration (IC50) of 66 nM.

For the molecule `CC(C)S(=O)(=O)[C@H]1CCC[C@@H]1N1C(=O)[C@@H](CC(=O)O)O[C@H](c2cccc(Cl)c2)[C@H]1c1ccc(Cl)cc1` (single isomer, unassigned) [Example 421], the IC50 was found to be 13600 nM.

These data come from US9376425B2, “Heterocyclic compounds as MDM2 inhibitors for the treatment of cancer” (AMGEN INC., priority 2011, dated 2016).
